Assay results from PMC6496074, “The Evolution of Azole Resistance in Candida albicans Sterol 14α-Demethylase (CYP51) through Incremental Amino Acid Substitutions” (Antimicrobial Agents and Chemotherapy, 2019).
≈ marks a conversion by molar mass, not a printed value.

What was measured:
[1] = target: T1, CaCYP51 Y132F+F145L (Candida albicans, UniProt P10613, F145L/Y132F); test: CYP51 reconstitution assay; format: biochemical; settings: for remaining activity at 4 µM: 0.25 h, read-out: Residual CYP51 activity (%) ± SD
T1 construct: made in house; host or cells: E. coli DH5α (pCWori+)
Description: (§1) Azole antifungal agents were added in 2.5 μl dimethyl sulfoxide, followed by 10 min of incubation at 37°C prior to assay initiation with 4 mM β-NADPH-Na4. The samples were then shaken for 15 min at 37°C. Sterol metabolites were recovered by extraction with ethyl acetate, followed by derivatization with 0.1 ml N,O-bis(trimethylsilyl)trifluoroacetamide (BSTFA)–trimethylchlorosilane (TMCS) (99:1) and 0.3 ml anhydrous pyridine (2 h at 80°C), prior to analysis by gas chromatography-mass spectrometry (GC-MS) ([52]). IC50 determinations were performed in duplicate.

[2] = target: T2, CaCYP51 Y132F+K143R (Candida albicans, UniProt P10613, K143R/Y132F); test: CYP51 reconstitution assay; format: biochemical; settings: for remaining activity at 4 µM: 0.25 h, read-out: Residual CYP51 activity (%) ± SD
T2 construct: made in house; host or cells: E. coli DH5α (pCWori+)
Description: as §1

[3] = target: T3, CaCYP51 F126V (Candida albicans, UniProt P10613, F126V); test: CYP51 reconstitution assay; format: biochemical; settings: for remaining activity at 4 µM: 0.25 h, 4 μM triazole, % of activity without triazole, read-out: Residual CYP51 activity (%) ± SD; for IC50: mean ± SD, duplicate
T3 construct: made in house; host or cells: E. coli DH5α (pCWori+)
Description: as §1

[4] = target: T4, CaCYP51 Y132H (Candida albicans, UniProt P10613, Y132H); test: CYP51 reconstitution assay; format: biochemical; settings: for remaining activity at 4 µM: 0.25 h, 4 μM triazole, % of activity without triazole, read-out: Residual CYP51 activity (%) ± SD; for IC50: mean ± SD, duplicate
T4 construct: made in house; host or cells: E. coli DH5α (pCWori+)
Description: as §1

[5] = system: C. albicans SC5314 strain with CaCYP51 substitution D278N+G464S; test: CLSI broth microdilution MIC; format: cell-based, Candida albicans; settings: for MIC: Candida albicans, SC5314, RPMI 1640, 24 h, 35°C, 50% reduction in growth
Text: (§2) Strains expressing seven single mutations (Y132F, K143R, F145L, S405F, G448E, G450E, G464S) and three double mutations (Y132F+K143R, Y132F+F145L, D278N+G464S) were selected from a previous study ([36]). Two additional strains expressing the Y132H and D278N CYP51 gene mutations were created utilizing the SAT1/FLP cassette described previously ([44]). […] Successful transformants were screened on yeast-peptone-dextrose agar plates containing nourseothricin and confirmed via Southern hybridization. Genomic DNA from nourseothricin-screened transformants was digested with the HindIII restriction enzyme, and the resulting DNA digests were loaded on 1% agarose gels containing ethidium bromide. Digested samples were visualized briefly under UV light after approximately 2 h of electrophoresis (120 V) to confirm appropriate band separation. Lanes containing digested DNA in the gel were transferred onto a nitrocellulose membrane via vacuum suction, and DNA was cross-linked to the membrane through UV exposure. PCR amplification of the genomic DNA from parent isolate SC5314 using primers ERG11_Probe_F (5′-[…]-3′) and ERG11_Probe_R (5′-[…]-3′) generated a 254-bp product, used as a probe for the ERG11 gene locus. The probe was labeled and prepared using an Amersham AlkPhos direct labeling and detection system (GE Life Sciences) and hybridized to the membrane through overnight incubation at 55°C. Bands containing the hybridized, alkaline phosphatase-labeled probe corresponding to either wild-type ERG11 alleles (2,678 bp) or successfully replaced alleles with the SAT1/FLP cassette included (4,318 bp) or recycled (3,119 bp) were visualized with the CDP-Star chemiluminescent detection reagent. To confirm the sequence of the replaced ERG11 allele, a DNA fragment containing the ERG11 ORF and approximately 435 bp upstream of the start codon and 229 bp downstream of the ERG11 stop codon was PCR amplified using primers CaERG11_A_(ApaI) (5′-[…]-3′) and CaERG11_E_(XhoI) (5′-[…]-3′). The resulting DNA fragment was purified and Sanger sequenced on an ABI model 3130XL genetic analyzer with the following sequencing primers: CaERG11SeqA (5′-[…]-3′), CaERG11SeqB (5′-[…]-3′), CaERG11SeqC (5′-[…]-3′), CaERG11SeqD (5′-[…]-3′), CaERG11SeqE (5′-[…]-3′), and CaERG11SeqF (5′-[…]-3′).
(§3) Azole MICs were determined using the broth microdilution method described by the Clinical Laboratory and Standards Institute ([45], [46]). […] Measurements were read visually at 24 h after incubation at 35°C for a 50% reduction in growth from that in the drug-free control wells. MIC measurements were performed in duplicate, and the MIC was reported as the higher of two values for all strains tested. In cases where the duplicate MIC values were not identical, the higher of the two MIC values is reported. […] Additionally, no MICs differed by more than 2 dilutions for a given strain and drug.

[6] = system: C. albicans SC5314 strain with CaCYP51 substitution G448E; test: CLSI broth microdilution MIC; format: cell-based, Candida albicans; settings: for MIC: Candida albicans, SC5314, RPMI 1640, 24 h, 35°C, 50% reduction in growth
Text: as §2, §3

[7] = system: C. albicans SC5314 strain with CaCYP51 substitution S405F; test: CLSI broth microdilution MIC; format: cell-based, Candida albicans; settings: for MIC: Candida albicans, SC5314, RPMI 1640, 24 h, 35°C, 50% reduction in growth
Text: as §2, §3

[8] = system: C. albicans SC5314 strain with CaCYP51 substitution F145L; test: CLSI broth microdilution MIC; format: cell-based; settings: Candida albicans, RPMI 1640, 24 h, 35°C, 50% reduction in growth
Text: as §2, §3

[9] = system: C. albicans SC5314 strain with CaCYP51 substitution G450E; test: CLSI broth microdilution MIC; format: cell-based; settings: Candida albicans, RPMI 1640, 24 h, 35°C, 50% reduction in growth
Text: as §2, §3

[10] = system: C. albicans SC5314 strain with CaCYP51 substitution G464S; test: CLSI broth microdilution MIC; format: cell-based; settings: Candida albicans, RPMI 1640, 24 h, 35°C, 50% reduction in growth
Text: as §2, §3

[11] = system: C. albicans SC5314 strain with CaCYP51 substitution K143R; test: CLSI broth microdilution MIC; format: cell-based; settings: Candida albicans, RPMI 1640, 24 h, 35°C, 50% reduction in growth
Text: as §2, §3

[12] = system: C. albicans SC5314 strain with CaCYP51 substitution Y132F+F145L; test: CLSI broth microdilution MIC; format: cell-based; settings: Candida albicans, RPMI 1640, 24 h, 35°C, 50% reduction in growth
Text: as §2, §3

[13] = system: C. albicans SC5314 strain with CaCYP51 substitution Y132F+K143R; test: CLSI broth microdilution MIC; format: cell-based; settings: Candida albicans, RPMI 1640, 24 h, 35°C, 50% reduction in growth
Text: as §2, §3

[14] = system: C. albicans SC5314 strain with CaCYP51 substitution Y132F; test: CLSI broth microdilution MIC; format: cell-based; settings: Candida albicans, RPMI 1640, 24 h, 35°C, 50% reduction in growth
Text: as §2, §3

[15] = system: C. albicans SC5314 strain with CaCYP51 substitution Y132H; test: CLSI broth microdilution MIC; format: cell-based; settings: Candida albicans, RPMI 1640, 24 h, 35°C, 50% reduction in growth
Text: as §2, §3

[16] = system: fluconazole-susceptible parent strain SC5314; test: CLSI broth microdilution MIC; format: cell-based; settings: Candida albicans; parent strain SC5314, no substitution; RPMI 1640, 24 h, 35°C, 50% reduction in growth
Text: as §2, §3

[17] = system: C. albicans SC5314 strain with CaCYP51 substitution D278N; test: CLSI broth microdilution MIC; format: cell-based; settings: Candida albicans, RPMI 1640, 24 h, 35°C, 50% reduction in growth
Text: as §2, §3

T2 sequence (P10613 whole entry, looked up, stated change not applied): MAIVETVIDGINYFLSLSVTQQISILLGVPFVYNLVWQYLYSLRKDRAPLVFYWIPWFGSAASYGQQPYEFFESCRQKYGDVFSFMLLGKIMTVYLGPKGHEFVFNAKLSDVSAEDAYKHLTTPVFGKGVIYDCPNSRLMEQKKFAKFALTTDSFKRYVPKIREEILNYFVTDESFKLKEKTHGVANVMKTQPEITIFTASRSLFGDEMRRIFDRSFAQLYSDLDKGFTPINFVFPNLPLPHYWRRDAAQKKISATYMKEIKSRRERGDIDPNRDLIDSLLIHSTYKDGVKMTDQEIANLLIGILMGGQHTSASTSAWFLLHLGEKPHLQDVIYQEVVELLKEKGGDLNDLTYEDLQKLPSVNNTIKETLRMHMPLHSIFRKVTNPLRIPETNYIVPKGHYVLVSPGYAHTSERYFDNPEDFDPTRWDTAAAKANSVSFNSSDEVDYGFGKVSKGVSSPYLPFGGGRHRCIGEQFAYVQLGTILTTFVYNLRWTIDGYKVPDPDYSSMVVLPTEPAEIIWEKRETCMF
T3 sequence (P10613 whole entry, looked up, stated change not applied): as above
T1 sequence (P10613 whole entry, looked up, stated change not applied): as above
T4 sequence (P10613 whole entry, looked up, stated change not applied): as above

| SMILES | IC50 [1] | remaining activity at 4 µM [1] | IC50 [2] | remaining activity at 4 µM [2] | remaining activity at 4 µM [3] | IC50 [3] | remaining activity at 4 µM [4] | IC50 [4] | MIC [5] | MIC [6] | MIC [7] | MIC [8] | MIC [9] | MIC [10] | MIC [11] | MIC [12] | MIC [13] | MIC [14] | MIC [15] | MIC [16] | other results |
| --- | --- | --- | --- | --- | --- | --- | --- | --- | --- | --- | --- | --- | --- | --- | --- | --- | --- | --- | --- | --- | --- |
| OC(Cn1cncn1)(Cn1cncn1)c1ccc(F)cc1F [Fluconazole, fluconazole] | 3890 ± 77 nM | 49.1 ± 1.76% | 5860 ± 524 nM | 62 ± 1.21% | 0.09 ± 0.06% | 278 ± 27 nM | 0.86 ± 0.07% | 220 ± 13 nM | 8 µg/mL (≈ 26.1 µM) | 8 µg/mL (≈ 26.1 µM) | 4 µg/mL (≈ 13.1 µM) | 4 µg/mL (≈ 13.1 µM) | 16 µg/mL (≈ 52.2 µM) | 8 µg/mL (≈ 26.1 µM) | 16 µg/mL (≈ 52.2 µM) | 32 µg/mL (≈ 104 µM) | 32 µg/mL (≈ 104 µM) | 8 µg/mL (≈ 26.1 µM) | 2 µg/mL (≈ 6.53 µM) | 1 µg/mL (≈ 3.27 µM) | fold increase in MIC over SC5314 [5]: at least 2 fold; fold increase in MIC over SC5314 [7]: at least 2 fold |
| CCC(C)n1ncn(-c2ccc(N3CCN(c4ccc(OCC5COC(Cn6cncn6)(c6ccc(Cl)cc6Cl)O5)cc4)CC3)cc2)c1=O (stereo not drawn) [Itraconazole, itraconazole] | 364 ± 23 nM | 0.91 ± 0.05% | 190 ± 2 nM | 0.23 ± 0.13% | 0.22 ± 0.05% | 206 ± 9 nM |  | 150 ± 28 nM | 0.25 µg/mL (≈ 0.354 µM) | 0.25 µg/mL (≈ 0.354 µM) | 0.25 µg/mL (≈ 0.354 µM) | 0.25 µg/mL (≈ 0.354 µM) | 0.25 µg/mL (≈ 0.354 µM) | 0.25 µg/mL (≈ 0.354 µM) | 0.5 µg/mL (≈ 0.709 µM) | 0.25 µg/mL (≈ 0.354 µM) | 0.25 µg/mL (≈ 0.354 µM) | 0.25 µg/mL (≈ 0.354 µM) | 0.25 µg/mL (≈ 0.354 µM) | 0.06 µg/mL (≈ 0.085 µM) | MIC [17]: 0.125 µg/mL (≈ 0.177 µM) |
| CC[C@@H]([C@H](C)O)n1ncn(-c2ccc(N3CCN(c4ccc(OC[C@@H]5CO[C@@](Cn6cncn6)(c6ccc(F)cc6F)C5)cc4)CC3)cc2)c1=O [Posaconazole, posaconazole] | 433 ± 102 nM | 2.64 ± 0.08% | 246 ± 24 nM | 0.86 ± 0.11% | 0.1 ± 0.01% | 304 ± 70 nM | 0.18 ± 0.06% | 195 ± 3 nM | ≤ 0.03 µg/mL | 0.06 µg/mL (≈ 0.0856 µM) | ≤ 0.03 µg/mL | ≤ 0.03 µg/mL | ≤ 0.03 µg/mL | ≤ 0.03 µg/mL | ≤ 0.03 µg/mL | ≤ 0.03 µg/mL | ≤ 0.03 µg/mL | ≤ 0.03 µg/mL | ≤ 0.03 µg/mL | ≤ 0.03 µg/mL | fold increase in MIC over SC5314 [6]: 2 fold; MIC [17]: ≤ 0.03 µg/mL |
| C[C@@H](c1ncncc1F)[C@](O)(Cn1cncn1)c1ccc(F)cc1F [Voriconazole, voriconazole] |  | 13.6 ± 0.19% |  | 8.86 ± 1.09% | 0.19 ± 0.06% |  | 0.33 ± 0.19% |  | 0.25 µg/mL (≈ 0.716 µM) | 0.25 µg/mL (≈ 0.716 µM) | 0.25 µg/mL (≈ 0.716 µM) | 0.5 µg/mL (≈ 1.43 µM) | 0.5 µg/mL (≈ 1.43 µM) | 0.25 µg/mL (≈ 0.716 µM) | 0.5 µg/mL (≈ 1.43 µM) | 1 µg/mL (≈ 2.86 µM) | 1 µg/mL (≈ 2.86 µM) | 0.5 µg/mL (≈ 1.43 µM) | 0.25 µg/mL (≈ 0.716 µM) | ≤ 0.03 µg/mL | MIC [17]: ≤ 0.03 µg/mL |
